According to patent publication US11254640B2, “N-substituted indoles and other heterocycles for treating brain disorders” (The Regents of the University of California, priority 2019, dated 2022):
Where two headings read alike, the source gives them in different places.

How the values were obtained:
Type in all cases: cell-based
5HT2A sensor [1] = test: 5HT2A sensor assay, antagonist mode (sLight1.3s HEK293T stable line); details: relative to 5-HT at 100 nM; for 5HT2A Antagonist mean @ 100 nM (%): 100 nM compound; for 5HT2A Antagonist mean @ 10 μM (%): 10 μM compound; for 5HT2A Antagonist mean @ 100 μM (%): 100 μM compound
Summary of the method: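 Inactivation score is computed from membrane dFF as (dFF(compound+5HT)−dFF(5HT))/dFF(5HT), with HBSS-only fluorescence as Fapo. Final concentrations: 5-HT 100 nM added first, then compound at 100 nM, 10 μM or 100 μM in 0.1% DMSO. Triplicates; FITC imaging, 5 fields per well.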

5HT2A = biological target: T1, 5HT2A (Homo sapiens, UniProt P28223); test: Calcium flux assay (Calcium secondary messenger pathway); details: agonist mode
T1 construct: expressed in transfected cells
Text: Calcium Flux Assay. Calcium Secondary Messenger Pathway. The Calcium No Wash^PLUS assay monitors the activation of a GPCR (e.g., 5HT2A) via Gq secondary messenger signaling in a live cell, non-imaging assay format. Calcium mobilization in PathHunter® cell lines or other cell lines stably expressing Gq-coupled GPCRs (e.g., 5HT2A) is monitored using a calcium-sensitive dye that is loaded into cells. GPCR (e.g., 5HT2A) activation by a compound results in the release of calcium from intracellular stores and an increase in dye fluorescence that is measured in real-time. In some embodiments, the ability of a compound of the present invention to modulate 5-HT2A function is determined using a calcium flux assay. In some embodiments, a compound of the present invention activates a calcium flux assay.
Calcium Secondary Messenger Pathway. Cell lines were expanded from freezer stocks according to standard procedures. Cells were seeded in a total volume of 20 μL into black-walled, clear-bottom, Poly-D-lysine coated 384-well microplates and incubated at 37° C. for the appropriate time prior to testing. Assays were performed in 1× Dye Loading Buffer consisting of 1× Dye, 1× Additive A and 2.5 mM Probenecid in HBSS/20 mM Hepes. Probenicid was prepared fresh. Cells were loaded with dye prior to testing. Media was aspirated from cells and replaced with 20 μL Dye Loading Buffer. Cells were incubated for 30-60 minutes at 37° C.
For agonist determination, cells were incubated with sample to induce response. After dye loading, cells were removed from the incubator and 10 μL HBSS/20 mM Hepes was added. 3× vehicle was included in the buffer when performing agonist dose curves to define the EC80 for subsequent antagonist assays. Cells were incubated for 30 minutes at room temperature in the dark to equilibrate plate temperature. Intermediate dilution of sample stocks was performed to generate 4× sample in assay buffer. Compound agonist activity was measured on a FLIPR Tetra (MDS). Calcium mobilization was monitored for 2 minutes and 10 μL 4× sample in HBSS/20 mM Hepes was added to the cells 5 seconds into the assay.
Compound activity was analyzed using CBIS data analysis suite (ChemInnovation, CA). For agonist mode assays, percentage activity is calculated using the following formula: % Activity=100%×(mean RFU of test sample−mean RFU of vehicle control)/(mean MAX RFU control ligand−mean RFU of vehicle control).

rat cortical neurons = test: Neurite outgrowth assay; details: Cortical neurone, 1 hour treatment at DIV 4, analysed DIV 7, fold vs DMSO control
Text: Neurite outgrowth assay. Changes in the pattern of neurite outgrowth have been implicated in neurodegenerative disorders as well as traumatic injuries. The discovery of new compounds that can positively affect neuritogenesis are important for developing new therapeutics for neurological diseases. Measurement of neurite outgrowth of rat cortical neurons using an automated image-based assay was used to determine the neuroplastic effects of the compounds of the present invention. In some embodiments, a compound of the present invention increases the pattern of neurite outgrowth. In some embodiments, a compound of the present invention increases neurite average length compared to a control. In some embodiments, a compound of the present invention increases neurite branch points compared to a control. In some embodiments, a compound of the present invention increases neurite average length and neurite branch points compared to a control.
Neurite Outgrowth Assay. Rat cortical neurons (20,000 cells/well) were freshly isolated from embryonic day 18 rats and cultured in Neurobasal Medium (+B27). The cultured cells were plated in 96 well-plates (avoiding external wells). At DIV 4, the neurons were treated with compound or control (10 μM) for 1 hour followed by complete washout of the compound. At DIV 7, the neurons were analyzed. The experiments were performed in triplicate. Neurite outgrowth was measured analyzing the following parameters: Number of Cell Bodies, total neurite length (pixels), Root Count, Segments, Extremities Count and node points. Changes in the pattern of neurite outgrowth of the neurons were analyzed by immunocytochemistry against β-III-tubulin. Pictures were acquired by the CellInsight CX7 from Thermo Fisher and analyzed using its software. Results generated in the equipment were maximum neurite length, extremity count, root count, dendrite branch points, and total neurite length. The results were compared to DMSO control, representing the fold-change in neuronal outgrowth.

5HT2A sensor [2] = test: 5HT2A sensor assay, agonist mode (sLight1.3s HEK293T stable line); details: percent relative to 5-HT at 100 uM; for 5HT2A Agonist mean @ 100 nM (%): 100 nM compound; for 5HT2A Agonist mean @ 10 μM (%): 10 μM compound; for 5HT2A Agonist mean @ 100 μM (%): 100 μM compound
Summary of the method: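 Fluorescence change, dFF=(Fsat−Fapo)/Fapo, was taken from membrane images (460 nm excitation) before and after compound addition and scaled as % activation, with the DMSO mean as 0 and the 5HT mean as 100. The cells were sLight1.3s HEK293T in HBSS. Final compound levels were 100 μM, 10 μM and 100 nM in 0.1% DMSO, in triplicate.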

[3] = read-out: Neurite Average Length @ 10 μM
[4] = read-out: Neurite Branch Points: @ 10 μM

T1 sequence (P28223 whole entry): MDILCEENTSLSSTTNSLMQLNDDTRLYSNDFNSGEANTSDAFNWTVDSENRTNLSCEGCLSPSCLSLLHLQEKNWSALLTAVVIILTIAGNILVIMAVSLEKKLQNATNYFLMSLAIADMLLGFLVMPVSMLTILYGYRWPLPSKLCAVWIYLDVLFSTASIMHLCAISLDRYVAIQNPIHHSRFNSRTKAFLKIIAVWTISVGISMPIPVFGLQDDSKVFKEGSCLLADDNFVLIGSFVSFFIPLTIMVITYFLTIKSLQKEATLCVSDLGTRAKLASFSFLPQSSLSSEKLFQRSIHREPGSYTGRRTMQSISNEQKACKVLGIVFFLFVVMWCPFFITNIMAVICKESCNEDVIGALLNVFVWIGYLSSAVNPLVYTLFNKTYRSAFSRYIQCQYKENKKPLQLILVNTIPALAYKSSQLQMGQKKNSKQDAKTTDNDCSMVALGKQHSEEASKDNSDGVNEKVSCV

## COc1cc2ccn(C[C@@H](C)N(C)C)c2cc1OC [Example 62, (R)-1-(5,6-dimethoxy-1H-indol-1-yl)-N,N-dimethylpropan-2-amine]
5HT2A sensor [1]
  5HT2A Antagonist mean @ 100 nM (%): B (inhibits 5HT response by 75% to 100%)
  5HT2A Antagonist mean @ 10 μM (%): B (inhibits 5HT response by 75% to 100%)
  5HT2A Antagonist mean @ 100 μM (%): A (inhibits 5HT response by >100%)
5HT2A
  EC50: > 10 µM
Rat cortical neurons; [3]
  fold induction at 10 µM: 1.5 to 3
Rat cortical neurons; [4]
  fold induction at 10 µM: 1.5 to 3
5HT2A sensor [2]
  5HT2A Agonist mean @ 100 nM (%): B (does not activate 5HT2A sensor assay in agonist mode)
  5HT2A Agonist mean @ 10 μM (%): B (does not activate 5HT2A sensor assay in agonist mode)
  5HT2A Agonist mean @ 100 μM (%): A (activates 5HT2A sensor assay in agonist mode)

## COc1cc(OC)c2c(ccn2C[C@@H](C)N(C)C)c1 [Example 63, (R)-1-(5,7-dimethoxy-1H-indol-1-yl)-N,N-dimethylpropan-2-amine]
5HT2A sensor [1]
  5HT2A Antagonist mean @ 100 nM (%): B (inhibits 5HT response by 75% to 100%)
  5HT2A Antagonist mean @ 10 μM (%): B (inhibits 5HT response by 75% to 100%)
  5HT2A Antagonist mean @ 100 μM (%): A (inhibits 5HT response by >100%)
5HT2A
  EC50: > 10 µM
Rat cortical neurons; [3]
  fold induction at 10 µM: 1.5 to 3
Rat cortical neurons; [4]
  fold induction at 10 µM: 1.5 to 3
5HT2A sensor [2]
  5HT2A Agonist mean @ 100 nM (%): B (does not activate 5HT2A sensor assay in agonist mode)
  5HT2A Agonist mean @ 10 μM (%): B (does not activate 5HT2A sensor assay in agonist mode)
  5HT2A Agonist mean @ 100 μM (%): B (does not activate 5HT2A sensor assay in agonist mode)

## COc1cc(C)c2c(ccn2C[C@@H](C)N(C)C)c1 [Example 65, (R)-1-(5-methoxy-7-methyl-1H-indol-1-yl)-N,N-dimethylpropan-2-amine]
5HT2A sensor [1]
  5HT2A Antagonist mean @ 100 nM (%): C (inhibits 5HT response by <75%)
  5HT2A Antagonist mean @ 10 μM (%): A (inhibits 5HT response by >100%)
  5HT2A Antagonist mean @ 100 μM (%): A (inhibits 5HT response by >100%)
5HT2A
  EC50: > 10 µM
Rat cortical neurons; [3]
  fold induction at 10 µM: 1.5 to 3
Rat cortical neurons; [4]
  fold induction at 10 µM: 1.5 to 3
5HT2A sensor [2]
  5HT2A Agonist mean @ 100 nM (%): B (does not activate 5HT2A sensor assay in agonist mode)
  5HT2A Agonist mean @ 10 μM (%): B (does not activate 5HT2A sensor assay in agonist mode)
  5HT2A Agonist mean @ 100 μM (%): B (does not activate 5HT2A sensor assay in agonist mode)

## C[C@H](Cn1ccc2c(F)c(F)ccc21)N(C)C [Example 67, (R)-1-(4,5-difluoro-1H-indol-1-yl)-N,N-dimethylpropan-2-amine]
5HT2A sensor [1]
  5HT2A Antagonist mean @ 100 nM (%): A (inhibits 5HT response by >100%)
  5HT2A Antagonist mean @ 10 μM (%): A (inhibits 5HT response by >100%)
  5HT2A Antagonist mean @ 100 μM (%): A (inhibits 5HT response by >100%)
5HT2A
  EC50: > 10 µM
Rat cortical neurons; [3]
  fold induction at 10 µM: 1.5 to 3
Rat cortical neurons; [4]
  fold induction at 10 µM: > 3
5HT2A sensor [2]
  5HT2A Agonist mean @ 100 nM (%): B (does not activate 5HT2A sensor assay in agonist mode)
  5HT2A Agonist mean @ 10 μM (%): B (does not activate 5HT2A sensor assay in agonist mode)
  5HT2A Agonist mean @ 100 μM (%): B (does not activate 5HT2A sensor assay in agonist mode)

## C[C@H](Cn1ccc2cc(F)c(F)cc21)N(C)C [Example 68, (R)-1-(5,6-difluoro-1H-indol-1-yl)-N,N-dimethylpropan-2-amine]
5HT2A sensor [1]
  5HT2A Antagonist mean @ 100 nM (%): B (inhibits 5HT response by 75% to 100%)
  5HT2A Antagonist mean @ 10 μM (%): A (inhibits 5HT response by >100%)
  5HT2A Antagonist mean @ 100 μM (%): A (inhibits 5HT response by >100%)
5HT2A
  EC50: > 10 µM
Rat cortical neurons; [3]
  fold induction at 10 µM: 1.5 to 3
Rat cortical neurons; [4]
  fold induction at 10 µM: > 3
5HT2A sensor [2]
  5HT2A Agonist mean @ 100 nM (%): B (does not activate 5HT2A sensor assay in agonist mode)
  5HT2A Agonist mean @ 10 μM (%): B (does not activate 5HT2A sensor assay in agonist mode)
  5HT2A Agonist mean @ 100 μM (%): A (activates 5HT2A sensor assay in agonist mode)

## C[C@H](Cn1ccc2cc(F)cc(F)c21)N(C)C [Example 69, (R)-1-(5,7-difluoro-1H-indol-1-yl)-N,N-dimethylpropan-2-amine]
5HT2A sensor [1]
  5HT2A Antagonist mean @ 100 nM (%): B (inhibits 5HT response by 75% to 100%)
  5HT2A Antagonist mean @ 10 μM (%): B (inhibits 5HT response by 75% to 100%)
  5HT2A Antagonist mean @ 100 μM (%): B (inhibits 5HT response by 75% to 100%)
5HT2A
  EC50: > 10 µM
Rat cortical neurons; [3]
  fold induction at 10 µM: 1.5 to 3
Rat cortical neurons; [4]
  fold induction at 10 µM: > 3
5HT2A sensor [2]
  5HT2A Agonist mean @ 100 nM (%): B (does not activate 5HT2A sensor assay in agonist mode)
  5HT2A Agonist mean @ 10 μM (%): B (does not activate 5HT2A sensor assay in agonist mode)
  5HT2A Agonist mean @ 100 μM (%): A (activates 5HT2A sensor assay in agonist mode)

## COc1cc2c(ccn2C[C@@H](C)N(C)C)cc1F [Example 70, (R)-1-(5-fluoro-6-methoxy-1H-indol-1-yl)-N,N-dimethylpropan-2-amine]
5HT2A sensor [1]
  5HT2A Antagonist mean @ 100 nM (%): B (inhibits 5HT response by 75% to 100%)
  5HT2A Antagonist mean @ 10 μM (%): B (inhibits 5HT response by 75% to 100%)
  5HT2A Antagonist mean @ 100 μM (%): A (inhibits 5HT response by >100%)
5HT2A
  EC50: < 10 µM
Rat cortical neurons; [3]
  fold induction at 10 µM: 1.5 to 3
Rat cortical neurons; [4]
  fold induction at 10 µM: 1.5 to 3
5HT2A sensor [2]
  5HT2A Agonist mean @ 100 nM (%): B (does not activate 5HT2A sensor assay in agonist mode)
  5HT2A Agonist mean @ 10 μM (%): B (does not activate 5HT2A sensor assay in agonist mode)
  5HT2A Agonist mean @ 100 μM (%): B (does not activate 5HT2A sensor assay in agonist mode)

## Cc1cc2cc(F)ccc2n1C[C@@H](C)N(C)C [Example 73, (R)-1-(5-fluoro-2-methyl-1H-indol-1-yl)-N,N-dimethylpropan-2-amine]
5HT2A sensor [1]
  5HT2A Antagonist mean @ 100 nM (%): B (inhibits 5HT response by 75% to 100%)
  5HT2A Antagonist mean @ 10 μM (%): B (inhibits 5HT response by 75% to 100%)
  5HT2A Antagonist mean @ 100 μM (%): A (inhibits 5HT response by >100%)
5HT2A
  EC50: > 10 µM
Rat cortical neurons; [3]
  fold induction at 10 µM: 1.5 to 3
Rat cortical neurons; [4]
  fold induction at 10 µM: 1.5 to 3
5HT2A sensor [2]
  5HT2A Agonist mean @ 100 nM (%): B (does not activate 5HT2A sensor assay in agonist mode)
  5HT2A Agonist mean @ 10 μM (%): B (does not activate 5HT2A sensor assay in agonist mode)
  5HT2A Agonist mean @ 100 μM (%): A (activates 5HT2A sensor assay in agonist mode)

## Cc1cn(C[C@@H](C)N(C)C)c2ccc(F)cc12 [Example 74, (R)-1-(5-fluoro-3-methyl-1H-indol-1-yl)-N,N-dimethylpropan-2-amine]
5HT2A sensor [1]
  5HT2A Antagonist mean @ 100 nM (%): A (inhibits 5HT response by >100%)
  5HT2A Antagonist mean @ 10 μM (%): A (inhibits 5HT response by >100%)
  5HT2A Antagonist mean @ 100 μM (%): B (inhibits 5HT response by 75% to 100%)
5HT2A
  EC50: > 10 µM
Rat cortical neurons; [3]
  fold induction at 10 µM: 1.5 to 3
Rat cortical neurons; [4]
  fold induction at 10 µM: 1.5 to 3
5HT2A sensor [2]
  5HT2A Agonist mean @ 100 nM (%): B (does not activate 5HT2A sensor assay in agonist mode)
  5HT2A Agonist mean @ 10 μM (%): B (does not activate 5HT2A sensor assay in agonist mode)
  5HT2A Agonist mean @ 100 μM (%): B (does not activate 5HT2A sensor assay in agonist mode)
